These results are taken from US20190106747A1, “DRUGS, PHARMACOGENOMICS AND BIOMARKERS FOR ACIVE LONGEVITY” (Indiana University Research and Technology Corporation, priority 2016, published 2019).

For one experiment, the system named is NAV1. Conditions: Table 4 universal biomarkers; longevity direction of change D; cited from earlier work.
The next experiment concerns MME. Conditions: Table 5 biomarkers in males; longevity direction of change D; cited from earlier work.
A further experiment relates to ANK3. Conditions: amygdala of a mouse model of mood disorders and stress; previous work; cited from earlier work.
The subject of experiment [1] is C. elegans. Briefly: Survival after paraquat (oxidative stress) in Mianserin-treated C. elegans. It is filed as in vivo. Conditions: three independent alleles (e362, e1197, e1260) of ANK3/unc-44; 50 μM Mianserin from day 1 adult, paraquat five days later. The method, then: FIG. 4A are graphs depicting Mianserin-induced protection from oxidative stress requires ANK3/unc-44, the C. elegans homolog of mammalian ANK3. Wild-type (wt) N2 strain (dotted lines) or ANK3/unc-44 mutants (bold lines), at day 1 adult stage, were treated with water (black) or 50 μM Mianserin (red), followed by increasing concentrations of paraquat five days later. Survival of animals was determined 24 h after paraquat addition and plotted in [%] (Y-axis) as a function of paraquat concentration [mM] (X-axis). Parallel wt (N2) control experiments (dotted lines) are shown for each graph. […] All error bars show S.E.M for 3 to 4 independent experiments.

The subject of experiment [2] is C. elegans. As to the kind of experiment: Lifespan of C. elegans treated with Mianserin. Type of experiment: in vivo. Conditions: for increase in lifespan: 50 μM Mianserin vs water. The procedure:
FIG. 4B is a graph depicting lifespan curves of wt and unc-44(e362) animals treated with water or 50 μM Mianserin. […] (Y-axis) as a function of time [days] (X-axis). Dotted lines represent wt (N2) animals and bold lines represent unc-44(e362) mutants. Black: solvent control; red: Mianserin 50 μM. […] Asterisks indicate P values (**; P<0.01, ***P<0.001).
FIG. 4C is a graph depicting mean increase in lifespan [%] (Y-axis) as a function of Mianserin concentration [μM] (X-axis). Solid red line represents unc-44(e362) animals. Dotted red line represents the parallel control experiment of Mianserin-treated wt (N2) animals. Error bars show standard deviation for experimental replicates.

A further experiment has as its target T1, PLA2G6 (Homo sapiens, UniProt O60733).
T1 sequence (O60733 1-806): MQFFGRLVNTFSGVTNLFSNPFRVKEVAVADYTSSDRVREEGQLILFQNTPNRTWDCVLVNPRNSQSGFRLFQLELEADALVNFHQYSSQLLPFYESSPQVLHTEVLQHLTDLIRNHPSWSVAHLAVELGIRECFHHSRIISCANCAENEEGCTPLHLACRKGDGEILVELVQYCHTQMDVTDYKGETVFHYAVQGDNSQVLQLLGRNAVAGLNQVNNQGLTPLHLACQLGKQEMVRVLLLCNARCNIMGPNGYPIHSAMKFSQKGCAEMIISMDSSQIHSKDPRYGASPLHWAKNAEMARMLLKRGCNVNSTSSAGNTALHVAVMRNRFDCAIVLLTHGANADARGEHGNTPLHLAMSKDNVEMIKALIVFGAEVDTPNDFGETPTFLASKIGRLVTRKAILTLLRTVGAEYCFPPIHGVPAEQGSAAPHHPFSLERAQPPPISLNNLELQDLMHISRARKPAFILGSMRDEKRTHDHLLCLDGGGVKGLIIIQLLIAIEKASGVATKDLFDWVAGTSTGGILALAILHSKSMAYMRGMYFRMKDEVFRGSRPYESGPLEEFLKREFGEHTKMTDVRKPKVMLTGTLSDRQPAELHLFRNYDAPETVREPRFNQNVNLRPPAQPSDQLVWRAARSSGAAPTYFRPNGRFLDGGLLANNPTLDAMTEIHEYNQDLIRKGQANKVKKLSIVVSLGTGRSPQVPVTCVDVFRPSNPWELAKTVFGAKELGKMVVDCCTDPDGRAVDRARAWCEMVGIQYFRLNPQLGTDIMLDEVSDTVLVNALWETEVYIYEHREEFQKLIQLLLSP
Conditions: existing drug targeting top longevity biomarker; cited from earlier work.

Another experiment relates to worms. Conditions: direct prior experimental evidence; cited from earlier work.
The next experiment has as its system POLH. Conditions: Table 4 universal biomarkers; longevity direction of change I; cited from earlier work.
The target in a further experiment is ABCC1 (Homo sapiens, UniProt P33527). Conditions: existing drug targeting top longevity biomarker; cited from earlier work.
ABCC1, sequence (P33527 whole entry): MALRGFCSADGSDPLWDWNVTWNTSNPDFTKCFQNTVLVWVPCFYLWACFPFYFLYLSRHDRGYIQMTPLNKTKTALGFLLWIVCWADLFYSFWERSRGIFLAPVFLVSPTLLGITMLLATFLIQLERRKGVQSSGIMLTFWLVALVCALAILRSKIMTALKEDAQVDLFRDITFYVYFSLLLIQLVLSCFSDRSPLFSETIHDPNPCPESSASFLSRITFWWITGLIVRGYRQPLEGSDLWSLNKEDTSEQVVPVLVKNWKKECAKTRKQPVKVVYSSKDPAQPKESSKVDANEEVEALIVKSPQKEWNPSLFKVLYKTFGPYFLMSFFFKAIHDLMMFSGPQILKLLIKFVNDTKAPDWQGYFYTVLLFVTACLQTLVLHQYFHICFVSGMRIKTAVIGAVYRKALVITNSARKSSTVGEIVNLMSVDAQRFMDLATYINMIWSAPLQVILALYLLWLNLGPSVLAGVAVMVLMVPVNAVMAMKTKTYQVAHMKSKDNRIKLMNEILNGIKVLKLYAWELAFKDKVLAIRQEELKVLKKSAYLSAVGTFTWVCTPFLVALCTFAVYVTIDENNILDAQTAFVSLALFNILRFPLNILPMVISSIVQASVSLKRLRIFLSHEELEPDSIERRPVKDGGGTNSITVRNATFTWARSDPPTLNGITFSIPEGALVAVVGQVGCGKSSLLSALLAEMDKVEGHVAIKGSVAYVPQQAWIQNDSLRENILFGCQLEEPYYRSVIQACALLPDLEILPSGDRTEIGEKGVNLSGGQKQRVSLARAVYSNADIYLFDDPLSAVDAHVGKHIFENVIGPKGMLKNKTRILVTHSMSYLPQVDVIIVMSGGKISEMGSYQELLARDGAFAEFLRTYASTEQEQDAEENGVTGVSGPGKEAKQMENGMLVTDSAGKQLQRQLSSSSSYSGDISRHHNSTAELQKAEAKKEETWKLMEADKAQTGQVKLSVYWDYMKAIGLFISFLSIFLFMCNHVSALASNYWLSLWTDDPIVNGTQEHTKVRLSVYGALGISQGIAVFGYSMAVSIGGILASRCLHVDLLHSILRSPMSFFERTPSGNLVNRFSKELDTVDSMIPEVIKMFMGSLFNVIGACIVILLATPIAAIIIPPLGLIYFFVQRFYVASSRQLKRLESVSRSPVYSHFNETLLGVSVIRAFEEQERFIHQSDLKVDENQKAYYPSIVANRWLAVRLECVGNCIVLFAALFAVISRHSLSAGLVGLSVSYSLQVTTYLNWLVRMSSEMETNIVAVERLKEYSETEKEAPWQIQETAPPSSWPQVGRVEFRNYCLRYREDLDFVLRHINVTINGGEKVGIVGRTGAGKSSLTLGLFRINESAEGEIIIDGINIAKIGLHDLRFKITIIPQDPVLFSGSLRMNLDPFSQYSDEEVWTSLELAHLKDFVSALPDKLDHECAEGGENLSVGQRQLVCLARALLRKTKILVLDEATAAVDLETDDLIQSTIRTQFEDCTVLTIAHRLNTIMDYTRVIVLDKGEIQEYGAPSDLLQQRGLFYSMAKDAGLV

Regarding `COc1ccc(C(CN(C)C)C2(O)CCCCC2)cc1` (centres unmarked) [Venlafaxine], the “NAV1 modulated by drug in the same direction as longevity” value in the experiment on NAV1 was “Venlafaxine”. Take sacubitril/valsartan: the “MME modulated by drug in the same direction as longevity” value with MME was “sacubitril/”. Regarding `CC/C=C\C/C=C\C/C=C\C/C=C\C/C=C\C/C=C\CCC(=O)O` [DHA], the ANK3 expression entry in the experiment with ANK3 is reported as “decreased”. As to `CN1CCN2c3ccccc3Cc3ccccc3C2C1` (racemic) [Mianserin, (±)-2-methyl-1,2,3,4,10,14b-hexahydrodibenzo[c,f]pyrazino[1,2-a]azepine], in the experiment with C. elegans [1], the “resistance to oxidative stress (survival 24 h after paraquat)” value is given as “failed to increase resistance to oxidative stress”. The “lifespan extension as a function of Mianserin concentration” value in the experiment with C. elegans [2] (ANK3/unc-44(e362) mutants, any Mianserin concentration) is reported as “No lifespan extension”. Moreover, the increase in lifespan is −9% with C. elegans [2] (unc-44(e362) mutant animals) and “+40%” with C. elegans [2] (wild-type (N2) animals).

As for `CCN(CC)CCCC(C)Nc1c2ccc(Cl)cc2nc2ccc(OC)cc12` (racemic) [quinacrine, (RS)—N′-(6-Chloro-2-methoxy-acridin-9-yl)-N,N-diethylpentane-1,4-diamine], on PLA2G6, the “effect on PLA2G6” value is “inhibiting”. `C[C@]12CC[C@@H]3c4ccc(O)cc4CC[C@H]3[C@@H]1CC[C@@H]2O` [estradiol, (8R,9S,13S,14S,17S)-13-methyl-6,7,8,9,11,12,14,15,16,17-decahydrocyclopenta[a]phenanthrene-3,17-diol]: the lifespan result in the experiment on worms is given as “extending lifespan”.

Turning to `NC(=O)N1c2ccccc2C=Cc2ccccc21` [Carbamazepine], the “POLH modulated by drug in the same direction as longevity” value in the experiment with POLH is listed as “Carbamazepine”. As to `O=C1C(CC[S+]([O-])c2ccccc2)C(=O)N(c2ccccc2)N1c1ccccc1` (centres unmarked) [sulfinpyrazone, 1,2-diphenyl-4-[2-(phenylsulfinyl)ethyl]pyrazolidine-3,5-dione], on ABCC1, the “effect on ABCC1” value was “inhibiting”.
